Measured values published in PubChem BioAssay (NCI).
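These data come from cells grown in 96-well plates and exposed to compound for 48 hours at five concentrations. GI50: concentration for 50% inhibition of growth. TGI: total growth inhibition.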

Tests used:
Test in all cases: NCI tumour cell line growth inhibition, 48 h; in the data active = GI50 below about 0.43 µM; inactive = the rest
A498 renal = test system: A498 renal
ACHN renal = test system: ACHN renal
HT29 colon = test system: HT29 colon
DU-145 prostate = test system: DU-145 prostate
IGROV1 ovarian = test system: IGROV1 ovarian
CAKI-1 renal = test system: CAKI-1 renal
UACC-62 melanoma = test system: UACC-62 melanoma
RPMI-8226 leukemia = test system: RPMI-8226 leukemia
NCI/ADR-RES ovarian = test system: NCI/ADR-RES ovarian
OVCAR-8 ovarian = test system: OVCAR-8 ovarian
OVCAR-3 ovarian = test system: OVCAR-3 ovarian
SF-539 CNS = test system: SF-539 CNS
LOX IMVI melanoma = test system: LOX IMVI melanoma
K-562 leukemia = test system: K-562 leukemia
RXF 393 renal = test system: RXF 393 renal
SN12C renal = test system: SN12C renal
SNB-19 CNS = test system: SNB-19 CNS
SF-268 CNS = test system: SF-268 CNS
BT-549 breast = test system: BT-549 breast
HOP-62 NSCLC = test system: HOP-62 NSCLC
HL-60(TB) leukemia = test system: HL-60(TB) leukemia
CCRF-CEM leukemia = test system: CCRF-CEM leukemia
SK-OV-3 ovarian = test system: SK-OV-3 ovarian
SR leukemia = test system: SR leukemia
NCI-H460 lung = test system: NCI-H460 lung
NCI-H23 lung = test system: NCI-H23 lung
NCI-H226 lung = test system: NCI-H226 lung
MDA-MB-435 = test system: MDA-MB-435
TK-10 renal = test system: TK-10 renal
OVCAR-5 ovarian = test system: OVCAR-5 ovarian
U251 CNS = test system: U251 CNS
HCC-2998 colon = test system: HCC-2998 colon
SW-620 colon = test system: SW-620 colon
SF-295 CNS = test system: SF-295 CNS
MOLT-4 leukemia = test system: MOLT-4 leukemia
SK-MEL-2 melanoma = test system: SK-MEL-2 melanoma
OVCAR-4 ovarian = test system: OVCAR-4 ovarian
SNB-75 CNS = test system: SNB-75 CNS
EKVX NSCLC = test system: EKVX NSCLC
T-47D breast = test system: T-47D breast
UACC-257 melanoma = test system: UACC-257 melanoma
KM12 colon = test system: KM12 colon
MALME-3M melanoma = test system: MALME-3M melanoma
A549 NSCLC = test system: A549 NSCLC
MCF7 breast = test system: MCF7 breast
MDA-MB-231 breast = test system: MDA-MB-231 breast
SK-MEL-28 melanoma = test system: SK-MEL-28 melanoma
UO-31 renal = test system: UO-31 renal
HS 578T breast = test system: HS 578T breast
HOP-92 NSCLC = test system: HOP-92 NSCLC
M14 melanoma = test system: M14 melanoma
786-0 renal = test system: 786-0 renal
COLO 205 colon = test system: COLO 205 colon
SK-MEL-5 melanoma = test system: SK-MEL-5 melanoma
HCT-15 colon = test system: HCT-15 colon
NCI-H522 lung = test system: NCI-H522 lung
HCT-116 colon = test system: HCT-116 colon
PC-3 prostate = test system: PC-3 prostate

COc1ccc(Cl)cc1Nc1nc(C(F)(F)F)ccc1C(=O)NN
> 22.5 µM: TGI (NCI/ADR-RES ovarian)
inactive: GI50 (A498 renal) 1.51 µM | GI50 (ACHN renal) 2.53 µM | GI50 (HT29 colon) 26.3 µM | GI50 (DU-145 prostate) 2.42 µM | GI50 (IGROV1 ovarian) 7.83 µM | GI50 (CAKI-1 renal) 2.74 µM | GI50 (UACC-62 melanoma) 4.87 µM | GI50 (RPMI-8226 leukemia) 1.91 µM | GI50 (NCI/ADR-RES ovarian) 2.3 µM | GI50 (OVCAR-8 ovarian) 3.43 µM | GI50 (OVCAR-3 ovarian) 0.615 µM | GI50 (SF-539 CNS) 6.52 µM | GI50 (LOX IMVI melanoma) 2.57 µM | GI50 (K-562 leukemia) 3.35 µM | GI50 (RXF 393 renal) 1.68 µM | GI50 (SN12C renal) 11.4 µM | GI50 (SNB-19 CNS) 8.93 µM | GI50 (SF-268 CNS) 1.38 µM | GI50 (BT-549 breast) 2.13 µM | GI50 (HOP-62 NSCLC) 5.78 µM | GI50 (HL-60(TB) leukemia) 2.75 µM | GI50 (SK-OV-3 ovarian) 3.88 µM | GI50 (NCI-H460 lung) 23 µM | GI50 (NCI-H23 lung) 9.11 µM | GI50 (NCI-H226 lung) 3.62 µM | GI50 (MDA-MB-435) 9.08 µM | GI50 (TK-10 renal) 3.81 µM | GI50 (OVCAR-5 ovarian) 3.81 µM | GI50 (U251 CNS) 2.43 µM | GI50 (SW-620 colon) 27.9 µM | GI50 (SF-295 CNS) 1.97 µM | GI50 (MOLT-4 leukemia) 2.53 µM | GI50 (SK-MEL-2 melanoma) 2.7 µM | GI50 (OVCAR-4 ovarian) 3.21 µM | GI50 (SNB-75 CNS) 16.6 µM | GI50 (EKVX NSCLC) 2.93 µM | GI50 (T-47D breast) 5.06 µM | GI50 (UACC-257 melanoma) 3.87 µM | GI50 (KM12 colon) 9.08 µM | GI50 (MALME-3M melanoma) 3.21 µM | GI50 (A549 NSCLC) 18.4 µM | GI50 (MCF7 breast) 18.7 µM | GI50 (MDA-MB-231 breast) 4.58 µM | GI50 (SK-MEL-28 melanoma) 3.38 µM | GI50 (UO-31 renal) 3.97 µM | GI50 (HS 578T breast) 12.3 µM | GI50 (HOP-92 NSCLC) 2.56 µM | GI50 (M14 melanoma) 2.38 µM | GI50 (786-0 renal) 2.42 µM | GI50 (COLO 205 colon) 7.76 µM | GI50 (SK-MEL-5 melanoma) 5.8 µM | GI50 (HCT-15 colon) 1.2 µM | GI50 (NCI-H522 lung) 4.09 µM | GI50 (HCT-116 colon) 4.76 µM | GI50 (PC-3 prostate) 2.84 µM
30.2 µM: TGI (MALME-3M melanoma)
63 µM: TGI (A498 renal)
> 21.4 µM: TGI (RXF 393 renal)
3.56 µM: TGI (SR leukemia)
11.7 µM: TGI (SF-295 CNS)
22.7 µM: TGI (CAKI-1 renal)
> 49.5 µM: TGI (NCI-H23 lung)
> 20.4 µM: TGI (SK-MEL-5 melanoma)
> 24.3 µM: TGI (MOLT-4 leukemia)
> 85.1 µM: TGI (IGROV1 ovarian)
2.86 µM: TGI (CCRF-CEM leukemia)
> 76.7 µM: TGI (UO-31 renal)
> 30.7 µM: TGI (SF-539 CNS)
> 65.4 µM: TGI (LOX IMVI melanoma)
> 25.8 µM: TGI (786-0 renal)
> 20.2 µM: TGI (DU-145 prostate)
> 24.5 µM: TGI (OVCAR-3 ovarian)
> 30.2 µM: TGI (UACC-257 melanoma)
13 µM: TGI (M14 melanoma)
> 75.4 µM: TGI (HOP-62 NSCLC)
9.82 µM: TGI (HCC-2998 colon)
40.1 µM: TGI (HOP-92 NSCLC)
53.5 µM: TGI (UACC-62 melanoma)
active: GI50 (CCRF-CEM leukemia) 0.319 µM | GI50 (SR leukemia) 0.404 µM
> 100 µM: TGI (ACHN renal) | TGI (HT29 colon) | TGI (OVCAR-8 ovarian) | TGI (K-562 leukemia) | TGI (SN12C renal) | TGI (SNB-19 CNS) | TGI (SF-268 CNS) | TGI (BT-549 breast) | TGI (NCI-H460 lung) | TGI (NCI-H226 lung) | TGI (MDA-MB-435) | TGI (TK-10 renal) | TGI (OVCAR-5 ovarian) | TGI (U251 CNS) | TGI (SW-620 colon) | TGI (SK-MEL-2 melanoma) | TGI (OVCAR-4 ovarian) | TGI (SNB-75 CNS) | TGI (EKVX NSCLC) | TGI (T-47D breast) | TGI (KM12 colon) | TGI (A549 NSCLC) | TGI (MCF7 breast) | TGI (MDA-MB-231 breast) | TGI (SK-MEL-28 melanoma) | TGI (HS 578T breast) | TGI (COLO 205 colon) | TGI (HCT-15 colon) | TGI (NCI-H522 lung) | TGI (HCT-116 colon) | TGI (PC-3 prostate)
> 68.1 µM: TGI (SK-OV-3 ovarian)
18.6 µM: TGI (HL-60(TB) leukemia)
13.3 µM: TGI (RPMI-8226 leukemia)
